Consider 4 molecules from patent US6562862B1, “Methods of inhibiting physiological conditions associated with an excess of neuropeptide Y” (Eli Lilly and Company, priority 1994, dated 2003).

This experiment concerns the target T1, Y1 (Homo sapiens, UniProt P25929).
T1 construct: In this assay the cell line SK-N-MC was employed; endogenous in cells; host or cells: SK-N-MC cells (homogenate of scraped, pelleted cells), received from Sloane-Kettering Memorial Hospital
T1 sequence (P25929 1-384): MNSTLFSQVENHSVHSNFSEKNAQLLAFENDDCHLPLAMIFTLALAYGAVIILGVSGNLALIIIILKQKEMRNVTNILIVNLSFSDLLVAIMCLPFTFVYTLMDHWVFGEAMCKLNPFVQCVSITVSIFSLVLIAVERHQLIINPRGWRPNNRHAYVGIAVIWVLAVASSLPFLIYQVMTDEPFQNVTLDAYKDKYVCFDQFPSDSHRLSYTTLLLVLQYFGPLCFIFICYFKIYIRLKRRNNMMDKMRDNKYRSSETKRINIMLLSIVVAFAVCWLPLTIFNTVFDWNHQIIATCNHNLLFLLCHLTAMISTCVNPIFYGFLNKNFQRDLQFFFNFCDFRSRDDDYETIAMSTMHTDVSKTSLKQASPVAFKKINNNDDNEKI
Kind of experiment: Neuropeptide Y Binding Assay (125I-peptide YY, SK-N-MC cell homogenate). The note with it: displacement of 0.1 nM 125I-peptide YY, SK-N-MC cells, about two hours at room temperature. Here is the method:
The biological activity of the compounds of the present invention was evaluated employing an initial screening assay which rapidly and accurately measured the binding of the tested compound to known neuropeptide Y receptor sites. Assays useful for evaluating neuropeptide Y receptor antagonists are well known in the art. See, e.g., U.S. Pat. No. 5,284,839, issued Feb. 8, 1994, which is herein incorporated by reference. See also, M. W. Walker, et al., Journal of Neurosciences, 8:2438-2446 (1988).
Neuropeptide Y Binding Assay
The ability of the compounds of the instant invention were assessed as to their ability to bind to neuropeptide Y using a protocol essentially as described in M. W. Walker, et al., supra. In this assay the cell line SK-N-MC was employed. This cell line was received from Sloane-Kettering Memorial Hospital, New York. These cells were cultured in T-150 flasks using Dulbecco's Minimal Essential Media (DMEM) supplemented with 5% fetal calf serum. The cells were manually removed from the flasks by scraping, pelleted, and stored at −70° C.
The pellets were resuspended using a glass homogenizer in 25 mM HEPES (pH 7.4) buffer containing 2.5 mM calcium chloride, 1 mM magnesium chloride, and 2 mg/L bacitracin. Incubations were performed in a final volume of 200 μl containing 0.1 nM ^125I-peptide YY (2200 Ci/mmol) and 0.2-0.4 mg protein for about two hours at room temperature.
Nonspecific binding was defined as the amount of radioactivity remaining bound to the tissue after incubating in the presence of 1 μM neuropeptide Y. In some experiments various concentrations of compounds were included in the incubation mixture.
Incubations were terminated by rapid filtration through glass fiber filters which had been presoaked in 0.3% polyethyleneimine using a 96-well harvester. The filters were washed with 5 ml of 50 mM Tris (pH 7.4) at 4° C. and rapidly dried at 60° C. The filters were then treated with melt-on scintillation sheets and the radioactivity retained on the filters were counted. The results were analyzed using various software packages. Protein concentrations were measured using standard coumassie protein assay reagents using bovine serum albumin as standards.
`O=C(c1ccc(OCCN2CCCC2)cc1)c1c(-c2ccc(O)cc2)sc2cc(O)ccc12` returned an IC50 of approximately 10 µM.
`COc1ccc2c(C(=O)c3ccc(OCCN4CCCCC4)cc3)c(-c3ccc(O)cc3)sc2c1` [R1=CH3, R2=1-piperidine, R3=H] had an IC50 of approximately 12 µM.
Next, `O=C(c1ccc(OCCN2CCCCCC2)cc1)c1c(-c2ccc(O)cc2)sc2cc(O)ccc12` [R1=H, R2=1-hexamethylenimino, R3=H]: approximately 20 µM.
As for `O=C(c1ccc(OCCN2CCCC2)cc1)c1c(-c2ccc(O)cc2)sc2cc(O)ccc12` [R1=H, R2=1-pyrrolidine, R3=H], the IC50 is approximately 17 µM.
